Results reported in publication PMC8397425, “A Strategy to Conjugate Bioactive Fragments to Cytotoxic Diiron Bis(cyclopentadienyl) Complexes” (Organometallics, 2021).

Columns and labels:
[1] = target: T1, bovine serum albumin (BSA) (Bos taurus, UniProt P02769); assay: BSA fluorescence quenching titration; type: binding; conditions: pH 7.0 buffer, NaCl 0.1 M, NaCac 0.01 M; for Log K (binding constant, compound/BSA): 1:1 model, 25 °C
T1 construct: bovine serum albumin (BSA, lyophilized powder, crystallized, ≥98.0%); purchased Merck
From the text: The interaction of [4]CF3SO3 and [9]CF3SO3 with bovine serum albumin (BSA) as a model protein was also explored. The addition of the metal complex to the protein in pH buffer solution (pH 7.0 buffer; NaCl 0.1 M, NaCac 0.01 M) produced a quenching of the intrinsic fluorescence emission of the latter. A data fit, according to the Stern–Volmer equation,[11] provided quenching constants (KSV) values equal to ca. 3.4 × 10^4 for both systems, indicative that a binding event occurs (Figure S1).[32] […] More precisely, the binding constant (10^6) appears to be high enough to ensure adduct formation but also weak enough to release the complex once the biotarget is reached; this is assumed to be the optimal condition for BSA-driven transport and diffusion of a drug.[34]
Ethidium bromide (EB, ≥98.0%), bovine serum albumin (BSA, lyophilized powder, crystallized, ≥98.0%), and natural double-stranded DNA from calf thymus (DNA, lyophilized powder, Na^+ salt in the form of fibers) were purchased from Merck, while anhydrous guanosine 5′-monophosphate disodium salt (Na2[GMP], >98.0%) was purchased from TCI Chemicals. Prior to use, DNA was sonicated to ca. 500 base pair length (MSE-Sonyprep sonicator, 7 cycles of 10 s sonication + 20 s pause at an amplitude of 14 μm, solution kept in ice bath—the final length was checked by agarose gel electrophoresis tests on the sample using a 100 bp DNA ladder) to produce stock solutions in water (ca. 2 mM). Stock solutions of EB and BSA were prepared by weighing directly in the buffer (NaCl 0.1 M, NaCac 0.01M, pH 7.0—NaCac is sodium cacodylate). […] Molar concentrations of solutions of EB (CEB), BSA (CBSA), and DNA (CDNA) were determined by absorbance measurements (εEB^480 nm = 5700 M^–1 cm^–1; εBSA^278 nm = 44000 M^–1 cm^–1; εDNA^260 nm = 13200 M^–1 cm^–1 for a concentration expressed in base pairs). […] In EB/DNA exchange experiments, EB was added to DNA until the fluorescence emission at λex = 520 nm/λem = 595 nm (diagnostic wavelengths for the DNA-intercalated EB only) started to reach the plateau (CEB = 5.60 × 10^–5 M, CDNA = 1.15 × 10^–4 M). […] The total maximum amount of DMSO was checked (<3%) as well as the metal complex absorbance at the set wavelengths (A < 0.05 to ensure negligible inner filter effects). Note that a blank test was carried out by adding DMSO to the EB/DNA mixture, in order to quantify fluorescence changes due only to dilution/solvent effects. For BSA fluorescence titrations, the working solution of the metal complex (4.42 × 10^–5 M for [4]CF3SO3, 4.59 × 10^–5 M for [9]CF3SO3, both in the buffer) was added to a 3.34 × 10^–7 M BSA solution in the buffer (λex = 280 nm, λem = 345 nm, dilution from stock such that the DMSO content is negligible). […]

[2] = system: Human Ovarian Carcinoma Cisplatin Resistant (A2780cisR) cell line; assay: MTT cytotoxicity, A2780cisR; type: cell-based; conditions: 72 h exposure, mean ± SD
From the text: Human ovarian carcinoma (A2780 and A2780cisR) cell lines were obtained from the European Collection of Cell Cultures. The Human Embryonic Kidney 293T (HEK 293T) cell line was obtained from the ATCC (Sigma, Buchs, Switzerland). Penicillin–streptomycin, RPMI 1640 GlutaMAX (where RPMI = Roswell Park Memorial Institute), and DMEM GlutaMAX media (where DMEM = Dulbecco’s modified Eagle medium) were obtained from Life Technologies, and fetal bovine serum (FBS) was obtained from Sigma. The cells were cultured in RPMI 1640 GlutaMAX (A2780 and A2780cisR) and DMEM GlutaMAX (HEK 293T) media containing 10% heat-inactivated FBS and 1% penicillin–streptomycin at 37 °C and CO2 (5%). The A2780cisR cell line was routinely treated with cisplatin (2 μM) in the media to maintain cisplatin resistance. The cytotoxicity was determined using the 3-(4,5-dimethyl-2-thiazolyl)-2,5-diphenyl-2H-tetrazolium bromide (MTT) assay.[42] Cells were seeded in flat-bottomed 96-well plates as a suspension in a prepared medium (100 μL aliquots and approximately 4300 cells/well) and preincubated for 24 h. Stock solutions of compounds were prepared in DMSO and were diluted in the medium. The solutions were sequentially diluted to give a final DMSO concentration of 0.5% and a final compound concentration range of 0–200 μM. Cisplatin was tested as a positive (0–100 μM) control. The compounds were placed in the preincubated 96-well plates in 100 μL aliquots, and the plates were incubated for a further 72 h. MTT (20 μL, 5 mg/mL in Dulbecco’s phosphate buffered saline) was placed in the cells, and the plates were incubated for a further 4 h. The culture medium was aspirated, and the purple formazan crystals, formed by the mitochondrial dehydrogenase activity of vital cells, were dissolved in DMSO (100 μL/well). The absorbance of the resulting solutions, directly proportional to the number of surviving cells, was quantified at 590 nm using a SpectroMax M5e multimode microplate reader (using SoftMax Pro software, version 6.2.2). The percentage of surviving cells was calculated from the absorbance of wells corresponding to the untreated control cells. The reported IC50 values are based on the means from two independent experiments, each comprising four tests per concentration level.

T1 sequence (P02769 25-607): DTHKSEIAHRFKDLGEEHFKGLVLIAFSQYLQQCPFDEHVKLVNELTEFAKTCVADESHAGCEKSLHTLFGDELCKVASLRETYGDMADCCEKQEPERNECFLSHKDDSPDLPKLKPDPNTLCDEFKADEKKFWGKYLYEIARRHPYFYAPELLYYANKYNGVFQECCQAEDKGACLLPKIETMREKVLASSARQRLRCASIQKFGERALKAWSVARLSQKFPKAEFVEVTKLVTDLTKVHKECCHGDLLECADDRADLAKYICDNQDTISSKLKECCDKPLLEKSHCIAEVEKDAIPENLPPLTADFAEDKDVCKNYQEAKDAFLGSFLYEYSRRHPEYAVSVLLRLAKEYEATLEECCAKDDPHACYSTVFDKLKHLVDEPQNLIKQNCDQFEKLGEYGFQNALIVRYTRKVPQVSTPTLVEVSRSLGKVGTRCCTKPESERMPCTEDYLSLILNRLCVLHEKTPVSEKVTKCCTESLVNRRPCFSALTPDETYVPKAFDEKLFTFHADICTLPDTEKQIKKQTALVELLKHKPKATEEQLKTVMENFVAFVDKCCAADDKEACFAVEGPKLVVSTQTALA

| Substance | Log K (binding constant, compound/BSA) [1] | Stern–Volmer quenching constant (KSV) [1] | IC50 [2] |
| --- | --- | --- | --- |
| [Fe2Cp2(CO)(μ-CO){μ-η^1:η^3-Cγ(3-C6H4NHC(=O)(CH2)3C6H4N(CH2CH2Cl)2)CβHCαNMe2}]CF3SO3 [[9]CF3SO3] | 6.5 ± 0.1 | ca. 3.4 × 10^4 | 3.8 ± 0.3 µM |
| [Fe2Cp2(CO)(μ-CO){μ-η^1:η^3-Cγ(3-C6H4OC(=O)C6H4OC(=O)Me)CβHCαNMe(Xyl)}]CF3SO3 [[4]CF3SO3] | 5.9 ± 0.1 | ca. 3.4 × 10^4 | 2.6 ± 0.4 µM |
